Results as given in ChEMBL document CHEMBL1147897, “Synthesis of enantiomerically pure milnacipran analogs and inhibition of dopamine, serotonin, and norepinephrine transporters” (Bioorg Med Chem Lett, 2007).
Where “and” joins values, the source holds several entries; their conditions need not be identical. Identical values can stand only once.

How the values were obtained:
Type in all cases: functional, subcellular, Brain
[1] = target: Sodium-dependent serotonin transporter (Rattus norvegicus, UniProt P31652); experiment: Inhibition of [3H]5-HT uptake at 5HT transporter in Wistar rat synaptosomes
[2] = target: Sodium-dependent dopamine transporter (Rattus norvegicus, UniProt P23977); experiment: Inhibition of [3H]5-HT uptake at DA transporter in Wistar rat synaptosomes
[3] = target: Norepinephrine transporter (Rattus norvegicus, UniProt Q9WTR4); experiment: Inhibition of [3H]5-HT uptake at NE transporter in Wistar rat synaptosomes
Sequence of Norepinephrine transporter (Q9WTR4 whole entry): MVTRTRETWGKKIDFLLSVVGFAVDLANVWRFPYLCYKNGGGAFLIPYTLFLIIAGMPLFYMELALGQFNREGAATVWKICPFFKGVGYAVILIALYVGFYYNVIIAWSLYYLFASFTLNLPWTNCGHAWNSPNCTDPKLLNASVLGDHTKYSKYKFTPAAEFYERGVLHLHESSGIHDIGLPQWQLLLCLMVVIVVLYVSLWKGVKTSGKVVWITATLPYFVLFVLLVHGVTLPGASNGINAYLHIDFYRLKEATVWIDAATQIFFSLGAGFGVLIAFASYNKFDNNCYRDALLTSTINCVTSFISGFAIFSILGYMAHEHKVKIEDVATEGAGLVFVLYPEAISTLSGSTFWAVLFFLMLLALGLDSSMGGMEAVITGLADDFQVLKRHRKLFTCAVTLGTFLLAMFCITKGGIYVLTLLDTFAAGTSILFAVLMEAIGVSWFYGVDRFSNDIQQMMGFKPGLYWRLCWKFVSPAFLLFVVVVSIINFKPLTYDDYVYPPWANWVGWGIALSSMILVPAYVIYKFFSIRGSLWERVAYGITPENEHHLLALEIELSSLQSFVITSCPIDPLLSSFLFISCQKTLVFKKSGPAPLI

Sequence of Sodium-dependent dopamine transporter (P23977 whole entry): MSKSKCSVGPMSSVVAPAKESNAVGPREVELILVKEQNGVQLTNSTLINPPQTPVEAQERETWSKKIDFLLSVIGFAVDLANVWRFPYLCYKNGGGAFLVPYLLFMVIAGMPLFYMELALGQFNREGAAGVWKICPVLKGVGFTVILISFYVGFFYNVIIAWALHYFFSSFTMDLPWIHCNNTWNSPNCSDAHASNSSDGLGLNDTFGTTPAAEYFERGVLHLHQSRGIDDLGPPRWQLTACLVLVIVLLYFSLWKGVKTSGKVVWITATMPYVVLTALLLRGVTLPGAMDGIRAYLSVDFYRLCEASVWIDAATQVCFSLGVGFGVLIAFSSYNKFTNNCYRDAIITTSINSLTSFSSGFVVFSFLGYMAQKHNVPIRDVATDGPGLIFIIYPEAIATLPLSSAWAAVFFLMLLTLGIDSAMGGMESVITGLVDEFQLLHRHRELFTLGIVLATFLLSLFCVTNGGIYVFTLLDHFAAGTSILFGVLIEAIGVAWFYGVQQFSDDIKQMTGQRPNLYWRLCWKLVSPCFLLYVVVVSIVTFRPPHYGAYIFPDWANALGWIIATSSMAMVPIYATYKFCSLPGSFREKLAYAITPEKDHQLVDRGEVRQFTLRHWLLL
Sequence of Sodium-dependent serotonin transporter (P31652 whole entry): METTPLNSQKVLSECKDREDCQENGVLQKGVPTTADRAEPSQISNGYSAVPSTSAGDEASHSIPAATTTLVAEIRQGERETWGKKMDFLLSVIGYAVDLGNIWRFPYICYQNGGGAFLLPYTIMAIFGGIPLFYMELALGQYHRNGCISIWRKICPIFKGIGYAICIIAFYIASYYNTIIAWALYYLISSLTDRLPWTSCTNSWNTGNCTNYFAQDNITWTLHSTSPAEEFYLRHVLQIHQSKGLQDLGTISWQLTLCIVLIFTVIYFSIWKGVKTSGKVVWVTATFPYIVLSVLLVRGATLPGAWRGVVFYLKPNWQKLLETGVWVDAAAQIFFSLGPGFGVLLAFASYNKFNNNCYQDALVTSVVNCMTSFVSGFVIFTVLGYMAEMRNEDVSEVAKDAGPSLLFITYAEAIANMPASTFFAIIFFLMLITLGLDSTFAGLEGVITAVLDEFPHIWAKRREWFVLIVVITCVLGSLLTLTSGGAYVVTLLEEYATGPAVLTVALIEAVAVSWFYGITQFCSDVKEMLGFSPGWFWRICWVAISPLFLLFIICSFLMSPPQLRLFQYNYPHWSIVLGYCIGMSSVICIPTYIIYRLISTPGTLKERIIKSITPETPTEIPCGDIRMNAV

SMILES | IC50 [1] | IC50 [2] | IC50 [3]
CCN(CC)C(=O)[C@]1(c2ccc(Cl)cc2)C[C@@H]1CN | 190 nM | 3700 nM | –
CCN(CC)C(=O)[C@]1(c2ccc(Cl)c(Cl)c2)C[C@@H]1CN | 84 nM | 540 nM | 10 nM
CCN(CC)C(=O)[C@]1(c2ccc(OC)cc2)C[C@@H]1CN | 230 nM | – | 140 nM
CCN(CC)C(=O)[C@]1(c2cccc3ccccc23)C[C@@H]1CN | 1200 nM | 5300 nM | 200 nM
CCN(CC)C(=O)[C@]1(c2cccs2)C[C@@H]1CN | 250 nM and 520 nM | – | –
CCN(CC)C(=O)[C@]1(c2ccsc2)C[C@@H]1CN | 250 nM | – | 410 nM
CCN(CC)C(=O)[C@@]1(c2ccc(Cl)cc2)C[C@H]1CN | 790 nM | – | –
CCN(CC)C(=O)[C@@]1(c2ccc(OC)cc2)C[C@H]1CN | 510 nM | – | 35 nM
CCN(CC)C(=O)[C@@]1(c2cccc3ccccc23)C[C@H]1CN | 7100 nM | 10000 nM | 370 nM
CCN(CC)C(=O)[C@@]1(c2ccsc2)C[C@H]1CN | 190 nM | 10000 nM | 19 nM
CCN(CC)C(=O)[C@]1(c2ccc(F)cc2)C[C@@H]1CN | 320 nM | 10000 nM | 500 nM
CCN(CC)C(=O)[C@]1(c2ccc3ccccc3c2)C[C@@H]1CN | 18 nM | 140 nM | 5 nM
CCN(CC)C(=O)[C@@]1(c2ccc3ccccc3c2)C[C@H]1CN | 130 nM | 1400 nM | 29 nM
CCN(CC)C(=O)[C@@]1(c2cccc(Cl)c2)C[C@H]1CN | 86 nM | 9000 nM | 33 nM
CCN(CC)C(=O)[C@@]1(c2ccc(F)cc2)C[C@H]1CN | 210 nM | – | 63 nM
CCN(CC)C(=O)[C@]1(c2cccc(Cl)c2)C[C@@H]1CN | 170 nM | – | 38 nM
CCN(CC)C(=O)[C@@]1(c2ccc(Cl)c(Cl)c2)C[C@H]1CN | 440 nM | 1700 nM | 26 nM
